What is called EC50 is the midpoint of the concentration-response curve.

Test [1] deals with T1, human TLR7 (Homo sapiens, UniProt Q9NYK1).
T1 construct: host or cells: HEK-Blue TLR7 cells (engineered human embryonic kidney cells)
T1 sequence (Q9NYK1 27-1049): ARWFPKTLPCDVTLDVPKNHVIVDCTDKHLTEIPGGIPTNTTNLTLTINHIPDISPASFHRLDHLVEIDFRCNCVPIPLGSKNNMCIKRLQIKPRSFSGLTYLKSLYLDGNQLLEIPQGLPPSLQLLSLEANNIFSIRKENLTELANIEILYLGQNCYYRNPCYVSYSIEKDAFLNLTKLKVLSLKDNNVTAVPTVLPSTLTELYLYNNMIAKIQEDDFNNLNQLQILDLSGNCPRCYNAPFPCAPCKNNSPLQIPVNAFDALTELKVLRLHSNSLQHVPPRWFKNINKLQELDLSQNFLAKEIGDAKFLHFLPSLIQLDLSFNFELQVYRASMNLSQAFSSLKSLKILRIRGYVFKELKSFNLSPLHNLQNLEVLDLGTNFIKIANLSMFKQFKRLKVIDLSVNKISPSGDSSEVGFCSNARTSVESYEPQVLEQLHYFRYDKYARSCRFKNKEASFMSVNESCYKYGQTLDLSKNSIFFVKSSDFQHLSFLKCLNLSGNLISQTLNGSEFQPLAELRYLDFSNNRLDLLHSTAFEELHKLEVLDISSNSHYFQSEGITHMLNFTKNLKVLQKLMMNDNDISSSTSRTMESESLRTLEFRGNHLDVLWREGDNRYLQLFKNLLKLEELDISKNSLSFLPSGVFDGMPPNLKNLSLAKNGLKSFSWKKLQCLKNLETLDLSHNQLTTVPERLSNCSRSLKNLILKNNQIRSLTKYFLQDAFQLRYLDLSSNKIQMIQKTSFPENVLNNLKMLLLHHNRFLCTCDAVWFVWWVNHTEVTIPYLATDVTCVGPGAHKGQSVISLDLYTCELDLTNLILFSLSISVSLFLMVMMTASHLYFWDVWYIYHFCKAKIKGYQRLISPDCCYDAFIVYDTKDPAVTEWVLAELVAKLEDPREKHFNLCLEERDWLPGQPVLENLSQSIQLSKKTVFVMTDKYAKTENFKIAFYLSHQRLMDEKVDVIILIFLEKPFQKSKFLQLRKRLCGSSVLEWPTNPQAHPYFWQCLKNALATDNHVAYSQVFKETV
Put plainly: Human TLR7 agonist activity reporter assay (HEK-Blue TLR7 cells, SEAP reporter). Particulars: human TLR7 (hTLR7) reporter assay, SEAP readout after 18 h, average where assay repeated, read-out: TLR7 Agonism EC50. Format: cell-based. The protocol:
Human TLR7 Agonist Activity Assay
This procedure describes a method for assaying human TLR7 (hTLR7) agonist activity of the compounds disclosed in this specification.
HEK-Blue™ TLR7 cells were added to each well of a 384-well tissue-culture plate (15,000 cells per well) and incubated 16-18 h at 37° C., 5% CO2. Compounds (100 nl) were dispensed into wells containing the HEK-Blue™ TLR cells and the treated cells were incubated at 37° C., 5% CO2. After 18 h treatment ten microliters of freshly-prepared Quanti-Blue™ reagent (Invivogen) was added to each well, incubated for 30 min (37° C., 5% CO2) and SEAP levels measured using an Envision plate reader (OD=620 nm).

Test [2] has as its system CD69. Put plainly: Induction of CD69 in human whole blood. Format: cell-based. As to conditions: 17 hrs incubation, CD69 surface staining, 100% set to 1 uM of resiquimod, average where assay repeated, read-out: hWB CD69 EC50. Here is the method:
Induction of Type I Interferon Genes (MX-1) and CD69 in Human Blood
The induction of Type I interferon (IFN) MX-1 genes and the B-cell activation marker CD69 are downstream events that occur upon activation of the TLR7 pathway. The following is a human whole blood assay that measures their induction in response to a TLR7 agonist.
Heparinized human whole blood was harvested from human subjects and treated with test TLR7 agonist compounds at 1 mM. The blood was diluted with RPMI 1640 media and Echo was used to predot 10 nL per well giving a final concentration of 1 uM (10 nL in 10 uL of blood). After mixing on a shaker for 30 sec, the plates were covered and placed in a 37° C. chamber for o/n=17 hrs. Fixing/lysis buffer was prepared (5×→1× in H2O, warm at 37° C.; Cat #BD 558049) and kept the perm buffer (on ice) for later use.
For surface markers staining (CD69): prepared surface Abs: 0.045 ul hCD14-FITC (ThermoFisher Cat #MHCD1401)+0.6 ul hCD19-ef450 (ThermoFisher Cat #48-0198-42)+1.5 ul hCD69-PE (cat #BD555531)+0.855 ul FACS buffer. Added 3 ul/well, spin 1000 rpm for 1 min and mixed on shaker for 30 sec, put on ice for 30 min. Stop stimulation after 30 minutes with 70 uL of prewarmed 1× fix/lysis buffer and use Feliex mate to resuspend (15 times, change tips for each plate) and incubate at 37 C for 10 minutes.
Centrifuge at 2000 rpm for 5 minutes aspirate with HCS plate washer, mix on shaker for 30 sec and then wash with 70 uL in dPBS and pelleted 2×s (2000 rpm for 5 min) and 50 ul wash in FACS buffer pelleted 1×s (2000 rpm for 5 min). Mix on shaker for 30 sec. For Intracellular markers staining (MX-1): Add 50 ul of BD Perm buffer III and mix on shaker for 30 sec. Incubate on ice for 30 minutes (in the dark). Wash with 50 uL of FACS buffer 2× (spin @2300 rpm×5 min after perm) followed by mixing on shaker for 30 sec. Resuspended in 20 ul of FACS buffer containing MX1 antibody ( )(4812)-Alexa 647: Novus Biologicals #NBP2-43704AF647) 20 ul FACS bf+0.8 ul hIgG+0.04 ul MX-1. Spin 1000 rpm for 1 min, mix on shaker for 30 se and the samples were incubated at RT in the dark for 45 minutes followed by washing 2×FACS buffer (spin @2300 rpm×5 min after perm). Resuspend 20 ul (35 uL total per well) of FACS buffer and cover with foil and place in 4° C. to read the following day. Plates were read on iQuePlus. The results were loaded into toolset and […] curves are generated in curve master. The y-axis 100% is set to 1 uM of resiquimod.

Each structure is given as a SMILES string.

Consider `CCCCNc1nc(N)nc2cnn(Cc3ccc(CNC4CCC4)c4cccnc34)c12` [Compound 101, N7-butyl-1-({5-[(cyclobutylamino)methyl]quinolin-8-yl}methyl)-1H-pyrazolo[4,3-d]pyrimidine-5,7-diamine], for which the 50% effective concentration (EC50) stood at 93.3 nM in test [1] and 47.1 nM in test [2].
For `CCC[C@@H](CCO)Nc1nc(N)nc2cnn(Cc3ccc(C(=O)NC4CCN(C)CC4)c4cccnc34)c12` [Compound 121, 8-[(5-amino-7-{[(3S)-1-hydroxyhexan-3-yl]amino}-1H-pyrazolo[4,3-d]pyrimidin-1-yl)methyl]-N-(1-methylpiperidin-4-yl)quinoline-5-carboxamide], in that order: 267 nM and 153 nM.
For `CCC[C@@H](CCO)Nc1nc(N)nc2cnn(Cc3ccc(C(=O)N4CCN(CCO)CC4)c4cccnc34)c12` [Compound 111, (3S)-3-{[5-amino-1-({5-[4-(2-hydroxyethyl)piperazine-1-carbonyl]quinolin-8-yl}methyl)-1H-pyrazolo[4,3-d]pyrimidin-7-yl]amino}hexan-1-ol], in that order: 66 nM and 57.7 nM.
For `CCC[C@@H](CCO)Nc1nc(N)nc2cnn(Cc3ccc(C(=O)N4CCN(C)CC4)c4cccnc34)c12` [Compound 112, (3S)-3-[(5-amino-1-{[5-(4-methylpiperazine-1-carbonyl)quinolin-8-yl]methyl}-1H-pyrazolo[4,3-d]pyrimidin-7-yl)amino]hexan-1-ol], in that order: 4.9 nM and 5.1 nM.
`CCC[C@@H](CCO)Nc1nc(N)nc2cnn(Cc3ccc(C(=O)N4CCC(CCO)CC4)c4cccnc34)c12` [Compound 134, (3S)-3-{[5-amino-1-({5-[4-(2-hydroxyethyl)piperidine-1-carbonyl]quinolin-8-yl}methyl)-1H-pyrazolo[4,3-d]pyrimidin-7-yl]amino}hexan-1-ol]: the EC50 stood at 35.4 nM in test [1] and 194 nM in test [2].
For `CCC[C@@H](CCO)Nc1nc(N)nc2cnn(Cc3ccc(CNC4CCC4)c4cccnc34)c12` [Compound 103, (3S)-3-{[5-amino-1-({5-[(cyclobutylamino)methyl]quinolin-8-yl}methyl)-1H-pyrazolo[4,3-d]pyrimidin-7-yl]amino}hexan-1-ol], in that order: 13.8 nM and 10.6 nM.
For the compound `CCC[C@@H](CCO)Nc1nc(N)nc2cnn(Cc3ccc(CN4CCN(CCO)CC4)c4cccnc34)c12` [Compound 139, (3S)-3-({5-amino-1-[(5-{[4-(2-hydroxyethyl)piperazin-1-yl]methyl}quinolin-8-yl)methyl]-1H-pyrazolo[4,3-d]pyrimidin-7-yl}amino)hexan-1-ol], the EC50 in test [1] turned out to be 5.5 nM; in test [2], 16.2 nM.
`CCC[C@@H](CCO)Nc1nc(N)nc2cnn(Cc3ccc(C(=O)NCCN)c4cccnc34)c12` [Compound 133, 8-[(5-amino-7-{[(3S)-1-hydroxyhexan-3-yl]amino}-1H-pyrazolo[4,3-d]pyrimidin-1-yl)methyl]-N-(2-aminoethyl)quinoline-5-carboxamide]: the EC50 in test [1] was 409 nM; in test [2], 593 nM.
The matching figures for `CCC[C@@H](CCO)Nc1nc(N)nc2c(C)nn(Cc3ccc(C(=O)NC4CCN(C)CC4)c4cccnc34)c12` [Compound 123, 8-[(5-amino-7-{[(3S)-1-hydroxyhexan-3-yl]amino}-3-methyl-1H-pyrazolo[4,3-d]pyrimidin-1-yl)methyl]-N-(1-methylpiperidin-4-yl)quinoline-5-carboxamide]: 732 nM and 661 nM.
For the compound `CCC[C@@H](CCO)Nc1nc(N)nc2c(C)nn(Cc3ccc(C(=O)NC4CCOCC4)c4cccnc34)c12` [Compound 119, 8-[(5-amino-7-{[(3S)-1-hydroxyhexan-3-yl]amino}-3-methyl-1H-pyrazolo[4,3-d]pyrimidin-1-yl)methyl]-N-(oxan-4-yl)quinoline-5-carboxamide], the EC50 was 606 nM in test [1] and 1000 nM in test [2].
The matching figures for `CCC[C@@H](CCO)Nc1nc(N)nc2cnn(Cc3ccc(C(=O)N4CC(CCOC)C4)c4cccnc34)c12` [Compound 128, (3S)-3-{[5-amino-1-({5-[3-(2-methoxyethyl)azetidine-1-carbonyl]quinolin-8-yl}methyl)-1H-pyrazolo[4,3-d]pyrimidin-7-yl]amino}hexan-1-ol]: 54.6 nM and 102 nM.
As for `CCC[C@@H](CCO)Nc1nc(N)nc2cnn(Cc3ccc(CN4C[C@H]5CN(C)C[C@H]5C4)c4cccnc34)c12` [Compound 140, (3S)-3-({1-[(5-{[(3aR,6aS)-5-methyl-octahydropyrrolo[3,4-c]pyrrol-2-yl]methyl}quinolin-8-yl)methyl]-5-amino-1H-pyrazolo[4,3-d]pyrimidin-7-yl}amino)hexan-1-ol], the EC50 worked out at 8.3 nM in test [1] and 21.1 nM in test [2].
As for `Nc1nc(NCC2CC3(CC3)C2)c2c(cnn2Cc2ccc(C(=O)N3CCNC(=O)C3)c3cccnc23)n1` [Compound 117, 4-[8-({5-amino-7-[({spiro[2.3]hexan-5-yl}methyl)amino]-1H-pyrazolo[4,3-d]pyrimidin-1-yl}methyl)quinoline-5-carbonyl]piperazin-2-one], the EC50 in test [1] was found to be 447 nM; in test [2], 266 nM.
For `CCC[C@@H](CCO)Nc1nc(N)nc2cnn(Cc3ccc(C(=O)N4CC5(CNC5)C4)c4cccnc34)c12` [Compound 124, (3S)-3-({5-amino-1-[(5-{2,6-diazaspiro[3.3]heptane-2-carbonyl}quinolin-8-yl)methyl]-1H-pyrazolo[4,3-d]pyrimidin-7-yl}amino)hexan-1-ol], in that order: 440 nM and 248 nM.
As for `CN1CCC(NC(=O)c2ccc(Cn3ncc4nc(N)nc(NCC5CC6(CC6)C5)c43)c3ncccc23)CC1` [Compound 116, 8-({5-amino-7-[({spiro[2.3]hexan-5-yl}methyl)amino]-1H-pyrazolo[4,3-d]pyrimidin-1-yl}methyl)-N-(1-methylpiperidin-4-yl)quinoline-5-carboxamide], the 50% effective concentration (EC50) in test [1] turned out to be 280 nM; in test [2], 291 nM.

The values are drawn from patent publication US12485123B2, “1H-pyrazolo[4,3-d]pyrimidine compounds as toll-like receptor 7 (TLR7) agonists” (BRISTOL-MYERS SQUIBB COMPANY, priority 2020, dated 2025).
